We go through 3 compounds from patent US20120214824A1, “PROTEOSTASIS REGULATORS” (priority 2010, published 2012).

Assay [1] concerns DDIT3. Put plainly: Multigene assay (QuantiGene Plex 2.0), human HeLa cell line. Format: cell-based. To be noted: 6 hours post-compound treatment, Table 7.
The subject of a further assay is HMOX1. The assay is described as above. Conditions: 6 hours post-compound treatment, Table 7. The assay is classed as cell-based.
For assay [2], the system named is Hspa1a. The assay is described as above. Format: cell-based. To be noted: 6 hours post-compound treatment, Table 7. As to the method:
(§1) This assay used the QuantiGene Plex 2.0 Reagent System from Affymetrix. This assay combines the use of bDNA (branch DNA) and xMAP magnetic capture beads from Luminex Technologies to quantitatively and simultaneously detect multiple mRNA transcripts per well. The overall procedure was performed according to the QuantiGene Plex 2.0 Reagent System instruction manual from Affymetrix.
(§2) Cells were seeded at a density of 12,000 cells/well in 96-well plates with an overnight incubation at 37° C., 5% CO2. Cells were treated with serially diluted compounds in a 7-point dose dependent manner. Cell lysis with 50% [v/v] Panomics Lysis Mixture (Lysis Mixture+10 μl/ml 25 Proteinase K) was performed 6 hours post-compound treatment. Lysed cells were heated at 50° C. to ensure appropriate lysing and the plates were then frozen at −80° C. Cell lysates, thawed at room temperature on the day of the assay, were pooled with mouse 8-gene multiplex probe sets and with 8 different sets of magnetic capture beads (Luminex Technology, Austin, Tex.) in a 100 μl/well volume. Biomek FX was used at every liquid transfer step. The eight plates containing lysate-probe-bead mixtures were incubated at 54° C.±1° C. on a shaking platform for an overnight incubation in the dark (18-20 hours). The following day the hybridization plates were compressed by transferring the hybridized lysates into a single magnetic capture plate. The plate was kept on a magnet to hold the beads and then washed with Panomics Wash Buffer 2.0 on a BioTek ELx405 select plate washer to remove any unbound sample. This step was followed by serial hybridizations and washings of the bDNA pre-amplifier (1 hour, 50° C.), bDNA amplifier (1 hour, 50° C.), label probe (1 hour, 50° C.), and streptavidin-phycoerythrin (SAPE, 30 minutes, room temperature). (Zhang, A. et al. Small interfering RNA and gene expression analysis using a multiplex branched DNA assay without RNA purification. J Biomol Screen 10, 549-56 (2005)). The plate was then washed with SAPE wash buffer to remove unbound SAPE and each well was analyzed with the Luminex FlexMap3D (Luminex, Austin, Tex.). SAPE fluorescence measured from each bead was proportional to the number of mRNA transcripts captured by the beads (Zheng, Z., Luo, Y. & McMaster, G. K. Sensitive and quantitative measurement of gene expression directly from a small amount of whole blood. Clin Chem 52, 1294-302 (2006)). Fold changes in gene expression were obtained for each gene per well by normalizing the raw data first to the DMSO control and then to a housekeeping gene (TBP-TATA binding protein or Tub1-alpha-tubulin).

The subject of another assay is SQSM. Described as above. To be noted: 6 hours post-compound treatment, Table 7. The assay is classed as cell-based. As to the method: as §1, §2
Assay [3] deals with GCLM. The description is as above. Format: cell-based. To be noted: 6 hours post-compound treatment, Table 7. The procedure: as §1, §2
The subject of assay [4] is HspA5. The description is as above. The assay is classed as cell-based. To be noted: 6 hours post-compound treatment, Table 7. The procedure: as §1, §2
The next assay concerns TUB1. Put plainly: Multigene assay (QuantiGene Plex 2.0), mouse MEF cell line. The assay is classed as cell-based. Conditions: 6 hours post-compound treatment, Table 1a. An outline of the steps:
(§3)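 Readout is SAPE bead fluorescence proportional to captured mRNA, obtained from lysates of cells exposed to serially diluted compound for 6 h. Values are fold changes relative to DMSO control, corrected against TBP or alpha-tubulin.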

In a further assay the test system is BCL2. The assay is described as above. Format: cell-based. Conditions: 6 hours post-compound treatment, Table 1b. In short, it runs like this: as §3
Assay [5] deals with GCLM. Described as above. Format: cell-based. To be noted: 6 hours post-compound treatment, Table 1a. In short, it runs like this: as §3
A further assay has as its system HMOX. Described as above. The assay is classed as cell-based. To be noted: 6 hours post-compound treatment, Table 1b. An outline of the steps: as §3
The subject of assay [6] is HspA5. The assay is described as above. Format: cell-based. To be noted: 6 hours post-compound treatment, Table 1b. In short, it runs like this:
as §3

For assay [7], the system named is HSPA1a. The assay is described as above. Format: cell-based. Conditions: 6 hours post-compound treatment, Table 1b. An outline of the steps: as §3
The test system of assay [8] is DDIT3. The description is as above. Format: cell-based. To be noted: 6 hours post-compound treatment, Table 1a. An outline of the steps:
as §3

In assay [9] the test system is medium spiny neurons in rat brain slices transfected with human mutant huntingtin-based constructs. Put plainly: Huntington's disease brain slice-based screening assay. Format: cell-based. Conditions: ex vivo rat brain slices transfected with Htt-exon1-Q73 construct; at concentrations from 0.1 uM to 3 uM (tested 0.03, 0.1, 0.3, 1 and 3 uM). As to the method: The FIGURE is a bar graph showing the number of healthy medium spiny neurons in rat brain slices for YFP, mN90Q73, KW+SP (positive control) and for [4-(2-isopropoxyphenyl)-2-methyl-5-oxo-7-(thiophen-2-yl)-1,4,5,6,7,8-hexahydroquinoline-3-carbonitrile] exposure at 0.03, 0.1, 0.3, 1 and 3 uM. Hemi-coronal brain slices containing striatum were prepared and transfected with control and huntingtin (Htt) constructs. YFP is Yellow Fluorescence Protein (YFP) plus vector. mN90Q73 is YFP plus the Htt-exon1-Q73 construct. The combination of KW-6002 (50 uM) and SP600125 (30 uM) was used as a positive control.
Selected compounds that modulated proteostasis network genes were tested in an ex vivo screening assay in which rat brain slices were transfected with human mutant huntingtin-based constructs as described in Reinhart et al., Identification of anti-inflammatory targets for Huntington's disease using a brain slice-based screening assay, Neurobiology of Disease (2011), 43(1), 248-256, the contents of which are expressly incorporated by reference herein. Hemi-coronal brain slices containing striatum were prepared and transfected with control and huntingtin (Htt) constructs.
50 uM KW-6002 (Istradefylline) in combination with 30 uM SP600125 was used as a positive control. YFP is Yellow Fluorescence Protein (YFP) plus vector. mN90Q73 is YFP plus the Htt-exonl-Q73 construct. […]

The subject of the next assay is firefly luciferase. Put plainly: Luciferase folding assay (Lucif.). Format: cell-based, human. To be noted: HeLa-luciferase cells; Table 1a. From the text: Firefly luciferase is a commonly used bioluminescent reporter. This monomeric enzyme of 61 kDa catalyzes a two-step oxidation reaction to yield light, usually in the green to yellow region, typically 550-570 nm. The first step of this reaction is activation of the luciferyl carboxylate by ATP to yield a reactive mixed anhydride. In the second step, the activated intermediate reacts with oxygen to create a transient dioxetane that breaks down to the oxidized products, oxyluciferin and CO2. Upon mixing with substrates, firefly luciferase produces an initial burst of light that decays over about 15 seconds to a low level of sustained luminescence. This kinetic profile reflects the slow release of the enzymatic product, thus limiting catalytic turnover after the initial reaction.
This mammalian cell based assay that used firefly luciferase as a sensor was used to screen for compounds that may modulate the cellular folding environment.
HeLa luciferase cell lines: Frozen bullets containing the cells were thawed briefly at 37° C. then placed into a T-150 flask containing 30-35 ml DMEM medium+Penicillin/Strep (1% final+10% FBS (final)+Geneticin @ 200-500 ug/ml. Cell cultures were maintained at 37° C. with 5% CO2 and water in the bottom of the incubator to keep cells healthy. Upon expanding cell line, luciferase measurements were taken to make sure that activity levels were between 2000-5000 (RLU) when plated at 15K/well in a 96-well format (Bright-Glo Promega) before compound treatment.
Compound treatment of HeLa-luciferase cells: HeLa-luciferase WT cells were plated in a 96-well format at 15K/well the day prior to performing compound treatment and/or luciferase assay. […] Final volume used per well was 90 uL. Flat bottom, white polystyrene plates were used for plating the cells.
For compound treatment, stocks of compounds were made up at 10 mM concentration in DMSO. Stocks compounds were diluted by 100× fold in the same media used for culturing the cells—this leads to a 0.1 mM (or 100 uM) concentration. After diluting the compound in media, 10 uL of the 100 uM solution was placed into each well of cells (90 uL); making the final concentration of the compound 10 uM. If serial dilutions of compounds were tested, serial dilutions of compounds were first made in DMSO accordingly, and further diluted in the media, prior to adding to cells. This procedure allowed for constant final levels of DMSO concentrations, regardless of initial compound concentration.
Performing luciferase activity assay: Bright-Glo Luciferase Assay Reagent (Promega cat #: E2610, E2620, E2650) was thawed out at RT in a water bath. Alternatively, Bright-Glo Luciferase assay buffer (prior to mixing with substrate) was stored overnight at RT, prior to using.
Following compound treatment, plates were removed from 37° C. and allowed to acclimate to RT for 5-10 min. Bright-Glo reagent was added to each cell-containing well in a 1:1 ratio (e.g., 100 uL of Bright Glo for each 100 uL cells).
Plates were placed on a plate shaker for 5 min, removing any air bubbles on the surface (which may interfere with proper reads), and then read on an EnVision 2104 Multilabel reader, Emission filter Luminescence 700, barcode 212, WL 400-700 nm.
Data for representative compounds in this assay are shown under the heading “Lucif.”

Consider `CC1=C(C#N)C(c2ccccc2OC(C)C)C2=C(CC(c3ccc(Cl)cc3)CC2=O)N1` (stereo not drawn) [C], for which the DDIT3 gene induction result with DDIT3 [1] was “+ (+ indicates a induction of greater than 2 fold)”. Moreover, the HMOX1 gene induction entry in the assay with HMOX1 is “— (— Indicates less than 2 fold induction)”. For the same compound, in the assay with Hspa1a [2], the HSPA1a gene induction entry is on record as “+ (+ indicates a induction of greater than 2 fold)”. For the same compound, in the assay on SQSM, the SQSM gene induction entry is “— (— Indicates less than 2 fold induction)”. In addition, the GCLM gene induction result with GCLM [3] was “— (— Indicates less than 2 fold induction)”. Also, in the assay on HspA5 [4], the HspA5 gene induction result is “+ (+ indicates a induction of greater than 2 fold)”.
Consider `CC1=C(C#N)C(c2ccccc2OC(C)C)C2=C(CC(c3ccccc3)CC2=O)N1` (stereo not drawn) [D], for which the DDIT3 gene induction entry in the assay on DDIT3 [1] was “— (— Indicates less than 2 fold induction)”. Also, the HMOX1 gene induction entry in the assay with HMOX1 is on record as “+ (+ indicates a induction of greater than 2 fold)”. In the assay with Hspa1a [2], the HSPA1a gene induction result is listed as “+ (+ indicates a induction of greater than 2 fold)”. Also, in the assay on SQSM, the SQSM gene induction result is “— (— Indicates less than 2 fold induction)”. The GCLM gene induction entry in the assay with GCLM [3] is “— (— Indicates less than 2 fold induction)”. Also, in the assay with HspA5 [4], the HspA5 gene induction entry is on record as “— (— Indicates less than 2 fold induction)”.
Consider `CC1=C(C#N)C(c2ccccc2OC(C)C)C2=C(CC(c3cccs3)CC2=O)N1` (stereo not drawn) [drawing 26/Me/CN/o-OCHMe2, 4-(2-isopropoxyphenyl)-2-methyl-5-oxo-7-(thiophen-2-yl)-1,4,5,6,7,8-hexahydroquinoline-3-carbonitrile], for which the TUB1 gene induction result in the assay on TUB1 is reported as “− (− Indicates less than 2 fold induction)”. Besides, the BCL2 gene induction result with BCL2 is listed as “− (− Indicates less than 2 fold induction)”. Also, the GCLM gene induction result with GCLM [5] is “− (− Indicates less than 2 fold induction)”. For the same compound, the HMOX gene induction result in the assay with HMOX is “− (− Indicates less than 2 fold induction)”. The HspA5 gene induction entry in the assay on HspA5 [6] is given as “− (− Indicates less than 2 fold induction)”. In addition, in the assay on HSPA1a [7], the HSPA1a gene induction result was “− (− Indicates less than 2 fold induction)”. Also, the DDIT3 gene induction result in the assay on DDIT3 [8] is on record as “− (− Indicates less than 2 fold induction)”. Moreover, the “medium spiny neurons viability (number of healthy medium spiny neurons)” value in [9] is “improved medium spiny neurons viability”. Further, the “Lucif. (luciferase activity induction)” value with firefly luciferase was “+ (+ indicates a induction of greater than 2 fold)”.
